Columns and labels:
Assay type in all cases: cell-based
NK1 = NK1 (Homo sapiens, UniProt P25103); test: Signal transduction (ST), intracellular Ca++ (FLIPR), functional NK1 antagonistic activity; settings: antagonist, read-out: NK1 pIC50 (converted)
Experimental: (§1) This test evaluates in vitro functional NK1 antagonistic activity. For the measurements of intracellular Ca^++ concentrations the cells were grown on 96-well (black wall/transparent bottom) plates from Costar for 2 days until they reached confluence. The cells were loaded with 2 μM Fluo3 in DMEM containing 0.1% BSA and 2.5 mM probenecid for 1 h at 37° C. They were washed 3× with a Krebs buffer (140 mM NaCl, 1 mM MgCl2×6H2O, 5 mM KCl, 10 mM glucose, 5 mM HEPES; 1.25 mM CaCl2; pH 7.4) containing 2.5 mM probenecid and 0.1% BSA (Ca^++-buffer). The cells were preincubated with a concentration range of antagonists for 20 min at RT and Ca^++-signals after addition of the agonists were measured in a Fluorescence Image Plate Reader (FLIPR from Molecular Devices, Crawley, England). The peak of the Ca^++-transient was considered as the relevant signal and the mean values of corresponding wells were analysed as described below.
(§2) The sigmoidal dose response curves were analysed by computerised curve-fitting, using the GraphPad Program. The EC50-value of a compound is the effective dose showing 50% of maximal effect. For mean curves the response to the agonist with the highest potency was normalised to 100%. For antagonist responses the IC50-value was calculated using non-linear regression.
(§3) The last columns indicate—without being limited thereto—for which action the compounds might be most suitable. Of course, since for some neurokinin receptors no data was determined, it is obvious that these compounds might be attributed to another suitable use.

NK2 = target: T1, NK2 (Homo sapiens, UniProt P21452); test: Signal transduction (ST), intracellular Ca++ (FLIPR), NK2; settings: antagonist, read-out: NK2 pIC50 (converted)
T1 sequence (P21452 1-398): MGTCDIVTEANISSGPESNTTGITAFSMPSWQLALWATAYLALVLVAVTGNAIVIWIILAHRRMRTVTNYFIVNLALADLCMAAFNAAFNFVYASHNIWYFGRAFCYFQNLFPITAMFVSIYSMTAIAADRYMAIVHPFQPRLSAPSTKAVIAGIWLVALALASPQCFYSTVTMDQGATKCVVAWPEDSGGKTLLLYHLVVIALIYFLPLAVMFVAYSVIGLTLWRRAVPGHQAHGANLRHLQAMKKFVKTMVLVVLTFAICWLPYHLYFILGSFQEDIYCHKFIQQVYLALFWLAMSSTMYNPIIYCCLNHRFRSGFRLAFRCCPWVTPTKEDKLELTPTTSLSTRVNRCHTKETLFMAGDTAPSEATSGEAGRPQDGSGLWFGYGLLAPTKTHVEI
Experimental: [The source words this procedure for another target and reports this target under the same test.] as §1, §2, §3

NK3 = target: T2, NK3 (Homo sapiens, UniProt P29371); test: Signal transduction (ST), intracellular Ca++ (FLIPR), NK3; settings: antagonist, read-out: NK3 pIC50 (converted)
T2 sequence (P29371 1-465): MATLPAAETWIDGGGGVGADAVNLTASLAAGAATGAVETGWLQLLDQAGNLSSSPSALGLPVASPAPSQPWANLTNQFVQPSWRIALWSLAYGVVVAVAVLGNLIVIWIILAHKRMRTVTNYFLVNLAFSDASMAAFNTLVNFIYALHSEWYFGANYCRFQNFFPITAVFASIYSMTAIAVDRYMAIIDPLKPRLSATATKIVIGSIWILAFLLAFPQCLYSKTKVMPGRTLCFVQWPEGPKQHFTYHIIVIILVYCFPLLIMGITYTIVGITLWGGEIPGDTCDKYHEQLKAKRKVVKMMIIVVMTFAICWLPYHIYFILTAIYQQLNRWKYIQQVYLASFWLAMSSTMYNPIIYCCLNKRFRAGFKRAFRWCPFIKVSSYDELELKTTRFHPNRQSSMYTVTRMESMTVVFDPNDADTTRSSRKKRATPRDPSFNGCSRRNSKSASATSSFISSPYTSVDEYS
Experimental: [The source words this procedure for another target and reports this target under the same test.] as §1, §2, §3

Chain of NK1 (P25103 whole entry): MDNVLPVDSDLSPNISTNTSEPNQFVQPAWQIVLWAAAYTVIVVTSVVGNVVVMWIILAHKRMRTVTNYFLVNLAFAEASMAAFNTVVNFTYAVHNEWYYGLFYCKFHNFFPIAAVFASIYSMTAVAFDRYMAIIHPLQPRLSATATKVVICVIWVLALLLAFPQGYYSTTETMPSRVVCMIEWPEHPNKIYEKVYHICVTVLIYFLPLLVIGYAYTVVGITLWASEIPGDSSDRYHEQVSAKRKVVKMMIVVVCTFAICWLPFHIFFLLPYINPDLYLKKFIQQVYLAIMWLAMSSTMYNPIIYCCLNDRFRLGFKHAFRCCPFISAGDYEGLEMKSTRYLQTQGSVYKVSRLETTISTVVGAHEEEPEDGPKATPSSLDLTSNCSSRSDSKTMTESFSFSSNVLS

Row | IC50 (NK1) | IC50 (NK2) | IC50 (NK3) | SMILES
1 | 61.7 nM | > 10000 nM | 708 nM | O=C(c1cc(C(F)(F)F)cc(C(F)(F)F)c1)N1CC[C@H](N2CCC3(CC2)CCN(S(=O)(=O)c2ccccc2)CC3)C[C@H]1Cc1ccccc1 [Compound 102]
2 | 977 nM | > 10000 nM | > 10000 nM | CC(C)(C)C1CCC(C(=O)N2CCC3(CC2)CCN([C@H]2CCN(C(=O)c4cc(C(F)(F)F)cc(C(F)(F)F)c4)[C@H](Cc4ccccc4)C2)CC3)CC1 (stereo partly drawn) [Compound 40]
3 | 562 nM | > 10000 nM | > 10000 nM | O=C(c1cc(C(F)(F)F)cc(C(F)(F)F)c1)N1CC[C@H](N2CCC3(CC2)CCN(S(=O)(=O)c2c(Cl)sc(Cl)c2Br)CC3)C[C@H]1Cc1ccccc1 [Compound 99]
4 | 219 nM | > 10000 nM | > 10000 nM | CN1CCC=C(C(=O)N2CCC3(CC2)CCN([C@H]2CCN(C(=O)c4cc(C(F)(F)F)cc(C(F)(F)F)c4)[C@H](Cc4ccccc4)C2)CC3)C1 [Compound 48]
5 | 151 nM | 1910 nM | > 10000 nM | O=C(c1ccc(=O)[nH]c1)N1CCC2(CC1)CCN([C@H]1CCN(C(=O)c3cc(C(F)(F)F)cc(C(F)(F)F)c3)[C@H](Cc3ccccc3)C1)CC2 [Compound 57]
6 | 17.4 nM | 776 nM | 1410 nM | O=C(C1CC1)N1CCC2(CC1)CCN([C@H]1CCN(C(=O)c3cc(C(F)(F)F)cc(C(F)(F)F)c3)[C@H](Cc3ccc(Cl)c(Cl)c3)C1)CC2 [Compound 131]
7 | 41.7 nM | 3020 nM | > 10000 nM | O=C(C(CO)c1ccccc1)N1CCC2(CC1)CCN([C@H]1CCN(C(=O)c3cc(C(F)(F)F)cc(C(F)(F)F)c3)[C@H](Cc3ccccc3)C1)CC2 (stereo partly drawn) [Compound 88]
8 | 240 nM | 2510 nM | 5750 nM | CC(C)CN1CCC2(CCN([C@@H]3CCN(C(=O)c4cc(C(F)(F)F)cc(C(F)(F)F)c4)[C@H](Cc4ccccc4)C3)CC2)CC1=O [Compound 193]
9 | 20.4 nM | 1200 nM | 4680 nM | O=C(C1CCCC1)N1CCC2(CC1)CCN([C@@H]1CCN(C(=O)c3cc(C(F)(F)F)cc(C(F)(F)F)c3)[C@H](Cc3ccccc3)C1)CC2 [Compound 18]
10 | 45.7 nM | ~8130 nM | > 10000 nM | O=C(Cn1cnnn1)N1CCC2(CC1)CCN([C@H]1CCN(C(=O)c3cc(C(F)(F)F)cc(C(F)(F)F)c3)[C@H](Cc3ccccc3)C1)CC2 [Compound 77]
11 | 295 nM | 5620 nM | > 10000 nM | O=C(c1ccc2nonc2c1)N1CCC2(CC1)CCN([C@H]1CCN(C(=O)c3cc(C(F)(F)F)cc(C(F)(F)F)c3)[C@H](Cc3ccccc3)C1)CC2 [Compound 68]
12 | 49 nM | 2000 nM | 6030 nM | Cc1noc(C)c1S(=O)(=O)N1CCC2(CCN([C@H]3CCN(C(=O)c4cc(C(F)(F)F)cc(C(F)(F)F)c4)[C@H](Cc4ccccc4)C3)CC2)CC1 [Compound 101]
13 | 57.5 nM | 9770 nM | > 10000 nM | Cc1nc2ccc(C(=O)N3CCC4(CC3)CCN([C@H]3CCN(C(=O)c5cc(C(F)(F)F)cc(C(F)(F)F)c5)[C@H](Cc5ccccc5)C3)CC4)cc2[nH]1 [Compound 67]
14 | 347 nM | > 10000 nM | 5890 nM | O=C(c1cc(C(F)(F)F)cc(C(F)(F)F)c1)N1CC[C@@H](N2CCC3(CCN(C(=O)C45CC6CC(CC(C6)C4)C5)CC3)CC2)C[C@H]1Cc1ccccc1 [Compound 59]
15 | 23.4 nM | 3470 nM | 2450 nM | O=C(c1ccoc1)N1CCC2(CC1)CCN([C@H]1CCN(C(=O)c3cc(C(F)(F)F)cc(C(F)(F)F)c3)[C@H](Cc3ccc(F)c(F)c3)C1)CC2 [Compound 140]
16 | 550 nM | > 10000 nM | > 10000 nM | O=C(c1cc(C(F)(F)F)cc(C(F)(F)F)c1)N1CC[C@H](N2CCC3(CC2)CCN(S(=O)(=O)c2ccc(Cl)cc2Cl)CC3)C[C@H]1Cc1ccccc1 [Compound 112]

Row | IC50 (NK1) | IC50 (NK2) | IC50 (NK3) | SMILES
17 | 269 nM | 1910 nM | 2340 nM | O=C(c1cc(C(F)(F)F)cc(C(F)(F)F)c1)N1CC[C@H](N2CCC3(CC2)CCN(S(=O)(=O)c2ccc(Br)s2)CC3)C[C@H]1Cc1ccccc1 [Compound 95]
18 | 105 nM | 6310 nM | > 10000 nM | O=C(c1ccc(=O)oc1)N1CCC2(CC1)CCN([C@H]1CCN(C(=O)c3cc(C(F)(F)F)cc(C(F)(F)F)c3)[C@H](Cc3ccccc3)C1)CC2 [Compound 46]
19 | 158 nM | 3980 nM | > 10000 nM | O=C(c1ccc[nH]c1=O)N1CCC2(CC1)CCN([C@H]1CCN(C(=O)c3cc(C(F)(F)F)cc(C(F)(F)F)c3)[C@H](Cc3ccccc3)C1)CC2 [Compound 55]
20 | 631 nM | 3550 nM | 3800 nM | O=C(c1ccoc1)N1CCCC2(CCCN(C3CCN(C(=O)c4cc(C(F)(F)F)cc(C(F)(F)F)c4)C(Cc4ccccc4)C3)C2)C1 (stereo not drawn) [Compound 212]
21 | 70.8 nM | ~4070 nM | > 10000 nM | COc1ccc(OC)c(S(=O)(=O)N2CCC3(CCN([C@H]4CCN(C(=O)c5cc(C(F)(F)F)cc(C(F)(F)F)c5)[C@H](Cc5ccccc5)C4)CC3)CC2)c1 [Compound 123]
22 | 85.1 nM | 4790 nM | 5370 nM | CC1CCCCC1C(=O)N1CCC2(CC1)CCN([C@@H]1CCN(C(=O)c3cc(C(F)(F)F)cc(C(F)(F)F)c3)[C@H](Cc3ccccc3)C1)CC2 (stereo partly drawn) [Compound 39]
23 | 81.3 nM | 5370 nM | > 10000 nM | O=C(CC1C=CCC1)N1CCC2(CC1)CCN([C@H]1CCN(C(=O)c3cc(C(F)(F)F)cc(C(F)(F)F)c3)[C@H](Cc3ccccc3)C1)CC2 (stereo partly drawn) [Compound 70]
24 | 589 nM | 1910 nM | 5750 nM | CC(C)(C)C(=O)N1CCCC2(CCCN([C@H]3CCN(C(=O)c4cc(C(F)(F)F)cc(C(F)(F)F)c4)[C@H](Cc4ccccc4)C3)C2)C1 (stereo partly drawn) [Compound 207]
25 | 20 nM | 7080 nM | > 10000 nM | O=C(C1CCOC1)N1CCC2(CC1)CCN(C(=O)[C@H]1CCN(C(=O)c3cc(C(F)(F)F)cc(C(F)(F)F)c3)[C@H](Cc3ccccc3)C1)CC2 (stereo partly drawn) [Compound 187]
26 | 891 nM | > 10000 nM | > 10000 nM | O=C(c1cc2ccccc2o1)N1CCC2(CC1)CCN([C@H]1CCN(C(=O)c3cc(C(F)(F)F)cc(C(F)(F)F)c3)[C@H](Cc3ccccc3)C1)CC2 [Compound 64]
27 | 269 nM | > 10000 nM | > 10000 nM | O=C(CN1CCCC1=O)N1CCC2(CC1)CCN([C@H]1CCN(C(=O)c3cc(C(F)(F)F)cc(C(F)(F)F)c3)[C@H](Cc3ccccc3)C1)CC2 [Compound 78]
28 | 191 nM | > 10000 nM | 8510 nM | CC1(C)C(C(=O)N2CCC3(CC2)CCN([C@H]2CCN(C(=O)c4cc(C(F)(F)F)cc(C(F)(F)F)c4)[C@H](Cc4ccccc4)C2)CC3)C1(C)C [Compound 16]
29 | 53.7 nM | ~1410 nM | 1450 nM | O=C1CC2(CCN1CC1CC1)CCN(C1CCN(C(=O)c3cc(C(F)(F)F)cc(C(F)(F)F)c3)C(Cc3ccccc3)C1)CC2 (stereo not drawn) [Compound 195]
30 | 38.9 nM | 1550 nM | 1290 nM | O=C1CCC(C(=O)N2CCC3(CC2)CCN(C2CCN(C(=O)c4cc(C(F)(F)F)cc(C(F)(F)F)c4)C(Cc4ccccc4)C2)CC3)N1 (stereo not drawn) [Compound 4]
31 | 44.7 nM | 3980 nM | > 10000 nM | COc1ccc(S(=O)(=O)N2CCC3(CCN([C@H]4CCN(C(=O)c5cc(C(F)(F)F)cc(C(F)(F)F)c5)[C@H](Cc5ccccc5)C4)CC3)CC2)cc1OC [Compound 122]
